From patent US20250388602A1 (Genase Therapeutics B.V., priority 2022, published 2025)
Where two headings read alike, the source gives them in different places.

What was measured:
[1] = in vitro; details: for HLM % remaining: % remaining at 60 min, 1 μM; for half-life at 1 μM: both, human
Method: Human Liver Microsomal metabolic stability: The microsomal metabolic stability assay utilized pooled human liver microsomes (mixed gender, BD Gentest), with supplemented cofactors NADPH and UDPGA (Solarbio S&T Co., LTD). Two separate experiments were performed as follows: • a) With cofactors (NADPH & UDPGA): 25 μL of 10 mM NADPH and 25 μL of 20 mM UDPGA were added to 197.5 μL of reaction solution (phosphate buffer (final concentration in assay 100 mM), MgCl2 (final concentration in assay (5 mM)), alamethacin (final concentration in assay 0.025 mg/mL) and microsomes (final concentration in assay 0.5 mg/mL). • b) Without cofactors (NADPH & UDPGA): 50 μL of H2O was added to 197.5 μL of reaction solution.
The mixture was pre-warmed at 37° C. for 10 minutes. The reaction was started with the addition of 2.5 μL of 100 μM control compound or test compound solutions. Diclofenac was used as positive control in this study. The final concentration of control compound and test compounds was 1 μM. Aliquots of 25 μL were taken from the reaction solution at 0.5, 5, 15, 30 and 60 minutes. The reaction was stopped by the addition of 5 volumes of cold acetonitrile containing internal standards. Samples were centrifuged at 3,220 g for 40 minutes. An aliquot of 100 μL of the supernatant was mixed with 100 μL of ultra-pure H2O and then used for LC-MS/MS analysis. Peak areas were determined from extracted ion chromatograms. Percent parent remaining was calculated from the area ratio of test compound. The slope value was determined by linear regression of the natural logarithm of percent parent remaining versus incubation time curve.
(§1) Peak areas were determined from extracted ion chromatograms to determine the in vitro half-life (t½) of parent compound by regression analysis of the percent parent disappearance vs. time curve. The in vitro half-life (in vitro t½) was determined from the slope value (in vitro t½=−0.693/k). All calculations were carried out using Microsoft Excel.

[2] = in vitro; details: for hHEPs % remaining: % remaining at 120 min, 1 μM; for half-life at 1 μM: human, hepatocytes
Method: Human Hepatocyte metabolic stability: Human hepatocytes (X008000, BioIVT) were freshly thawed prior to the incubations with test compound. Hepatocytes were transferred to 50 mL conical tubes and centrifuged 10 min at 100 g. Thawing medium was removed and replaced by preheated (37° C.) incubation medium (William's E Medium supplemented with GlutaMAX), to yield a hepatocyte density ˜1.5×10^6 cells/mL. Cell viability was determined using AO/PI staining and hepatocytes were diluted using incubation medium to a working density of 0.5×10^6 viable cells/mL. 198 μL of hepatocytes were added into each well of a 96-well plate and placed in the incubator to allow the hepatocytes to warm for 10 minutes. 2 μL test compound or positive control was placed into respective wells of the 96-well plate (final concentration test compound 1 μM) to start the reaction. The plate was returned to the incubator and 25 μL aliquots of the well contents were removed at time points of 0, 15, 30, 60, 90 and 120 minutes. The aliquots were mixed with 6 volumes (150 μL) of acetonitrile containing internal standards (100 nM alprazolam, 200 nM caffeine, and 100 nM tolbutamide) to terminate the reaction. The plate was centrifuged for 20 minutes at 3,200 g. Aliquots of 150 μL of the supernatants were used for LC/MS/MS analysis. All incubations were performed in duplicate.
as §1

[3] = target: CYP1A2 (Homo sapiens (Human), UniProt P05177); assay: CYP inhibition in pooled human liver microsomes; type: in vitro ADME
CYP1A2, sequence (P05177 whole entry): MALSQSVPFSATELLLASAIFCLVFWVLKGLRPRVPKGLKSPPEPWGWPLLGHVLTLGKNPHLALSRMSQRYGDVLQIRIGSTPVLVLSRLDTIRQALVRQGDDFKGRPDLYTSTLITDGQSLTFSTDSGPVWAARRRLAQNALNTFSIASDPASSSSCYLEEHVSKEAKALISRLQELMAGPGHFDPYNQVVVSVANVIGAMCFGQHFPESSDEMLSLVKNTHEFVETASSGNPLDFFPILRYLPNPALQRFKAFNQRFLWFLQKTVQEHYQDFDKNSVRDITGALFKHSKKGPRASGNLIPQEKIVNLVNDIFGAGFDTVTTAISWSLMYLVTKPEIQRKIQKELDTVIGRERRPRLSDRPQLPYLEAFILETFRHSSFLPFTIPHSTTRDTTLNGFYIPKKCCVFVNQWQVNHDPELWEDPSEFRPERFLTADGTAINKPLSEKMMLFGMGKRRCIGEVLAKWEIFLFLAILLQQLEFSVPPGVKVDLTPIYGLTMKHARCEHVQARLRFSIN
Method: (§2) CYP inhibition: Co-incubation of compounds with P450 enzyme-selective substrates was performed using pooled human liver microsomes (Cat. No. H0610, Xenotech), to determine their potential to cause drug-drug interactions. The assay was performed in duplicate. The formation of acetaminophen, 7′-hydoxycoumarin, hydrobupropion, N-desethylamodiaquine, 4′-hydroxydiclofenac, 4′-hydroxymephenytoin, 1′-hydroxybufuralol, 6″-hydroxychlorzoxazone were quantified as markers for CYP1A2, CYP2A6, […], CYP2C8, CYP2C9, CYP2C19, […], CYP2E1, respectively. CYP3A4 inhibition was measured using 2 substrates, measuring the formation of […] (3A4-T), and 1′-hydroxymidazolam (3A4-M). The incubation was carried out in 96 deep well plates each well containing: 179 μL of the master solution (0.2 mg/mL microsomes plus CYP substrate (see below for final substrate concentration and incubation time for the different CYP assays)) in 100 mM phosphate buffer and 1 μL of the compound working solution or vehicle. The final concentrations of the compounds in the assay was 30 μM when using a single dose or 0.1, 0.3, 1, 3, 10 and 30 μM for a dose response.
The incubation plate was placed into a water bath and pre-warmed at 37° C. for 5 minutes before the reactions were started by the addition of 20 μL of 10 mM NADPH solution and incubated at 37° C. for the time listed above. […]

[4] = target: CYP2A6 (Homo sapiens (Human), UniProt P11509); assay: biochemical; type: in vitro ADME
CYP2A6, sequence (P11509 whole entry): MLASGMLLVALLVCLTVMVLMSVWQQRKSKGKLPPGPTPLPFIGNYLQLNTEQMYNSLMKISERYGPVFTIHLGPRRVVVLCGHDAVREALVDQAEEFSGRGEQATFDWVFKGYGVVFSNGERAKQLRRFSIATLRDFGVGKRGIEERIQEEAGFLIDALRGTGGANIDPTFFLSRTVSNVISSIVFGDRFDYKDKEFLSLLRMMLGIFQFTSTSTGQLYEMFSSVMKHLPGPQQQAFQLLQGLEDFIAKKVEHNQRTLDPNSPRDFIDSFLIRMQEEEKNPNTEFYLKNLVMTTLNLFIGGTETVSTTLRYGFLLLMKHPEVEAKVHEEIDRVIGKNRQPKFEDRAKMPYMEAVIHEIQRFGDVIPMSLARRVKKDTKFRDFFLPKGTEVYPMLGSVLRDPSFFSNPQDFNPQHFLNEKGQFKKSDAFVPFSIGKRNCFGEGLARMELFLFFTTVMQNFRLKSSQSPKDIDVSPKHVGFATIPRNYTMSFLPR
Method: as §2
(§3) The incubation plate was placed into a water bath and pre-warmed at 37° C. for 5 minutes before the reactions were started by the addition of 20 μL of 10 mM NADPH solution and incubated at 37° C. for the time listed above. The reaction was stopped by addition of 1.5 volumes (300 μL) of cold ACN containing 3% formic acid and 200 nM tolbutamide, 200 nM aprozolam and 200 nM labalol. The plate was centrifuged at 3,220 g for 50 minutes and then 200 μL of the supernatant was transferred to the analysis plate for LC/MS/MS analysis. The respective metabolite formation from each probe substrate was compared with that observed for the solvent control incubations.

[5] = target: CYP2B6 (Homo sapiens (Human), UniProt P20813); assay: biochemical; type: in vitro ADME
CYP2B6, sequence (P20813 whole entry): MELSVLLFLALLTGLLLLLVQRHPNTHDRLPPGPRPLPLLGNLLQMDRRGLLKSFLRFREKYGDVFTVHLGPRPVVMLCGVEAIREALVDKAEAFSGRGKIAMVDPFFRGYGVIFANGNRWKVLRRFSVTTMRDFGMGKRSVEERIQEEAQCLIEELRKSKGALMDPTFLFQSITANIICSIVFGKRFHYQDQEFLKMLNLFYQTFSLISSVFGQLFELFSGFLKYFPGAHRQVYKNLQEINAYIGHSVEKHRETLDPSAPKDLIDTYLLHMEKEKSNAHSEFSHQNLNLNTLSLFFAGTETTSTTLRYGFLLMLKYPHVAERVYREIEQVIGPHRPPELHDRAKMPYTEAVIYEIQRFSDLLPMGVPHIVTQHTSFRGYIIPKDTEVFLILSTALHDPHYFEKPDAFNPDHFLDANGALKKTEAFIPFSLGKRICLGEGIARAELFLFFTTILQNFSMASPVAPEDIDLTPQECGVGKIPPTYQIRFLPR
Method: as §2, §3

[6] = target: CYP2C19 (Homo sapiens (Human), UniProt P33261); assay: biochemical; type: in vitro ADME
CYP2C19, sequence (P33261 whole entry): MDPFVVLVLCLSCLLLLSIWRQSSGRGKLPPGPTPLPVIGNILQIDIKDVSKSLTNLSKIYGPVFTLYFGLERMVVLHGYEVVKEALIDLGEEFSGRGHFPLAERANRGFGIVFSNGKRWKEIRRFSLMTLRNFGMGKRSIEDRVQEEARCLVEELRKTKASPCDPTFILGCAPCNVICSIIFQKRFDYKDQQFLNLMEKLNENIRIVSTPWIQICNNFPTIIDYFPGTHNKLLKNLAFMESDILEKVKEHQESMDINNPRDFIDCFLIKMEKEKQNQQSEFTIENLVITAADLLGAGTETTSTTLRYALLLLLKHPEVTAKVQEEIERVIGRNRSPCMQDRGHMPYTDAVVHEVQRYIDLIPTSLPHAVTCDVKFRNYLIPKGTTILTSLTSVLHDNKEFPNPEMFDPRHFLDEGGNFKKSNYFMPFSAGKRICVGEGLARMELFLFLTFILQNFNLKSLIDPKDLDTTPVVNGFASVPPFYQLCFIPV
Method: as §2, §3

[7] = target: CYP2C8 (Homo sapiens (Human), UniProt P10632); assay: biochemical; type: in vitro ADME
CYP2C8, sequence (P10632 whole entry): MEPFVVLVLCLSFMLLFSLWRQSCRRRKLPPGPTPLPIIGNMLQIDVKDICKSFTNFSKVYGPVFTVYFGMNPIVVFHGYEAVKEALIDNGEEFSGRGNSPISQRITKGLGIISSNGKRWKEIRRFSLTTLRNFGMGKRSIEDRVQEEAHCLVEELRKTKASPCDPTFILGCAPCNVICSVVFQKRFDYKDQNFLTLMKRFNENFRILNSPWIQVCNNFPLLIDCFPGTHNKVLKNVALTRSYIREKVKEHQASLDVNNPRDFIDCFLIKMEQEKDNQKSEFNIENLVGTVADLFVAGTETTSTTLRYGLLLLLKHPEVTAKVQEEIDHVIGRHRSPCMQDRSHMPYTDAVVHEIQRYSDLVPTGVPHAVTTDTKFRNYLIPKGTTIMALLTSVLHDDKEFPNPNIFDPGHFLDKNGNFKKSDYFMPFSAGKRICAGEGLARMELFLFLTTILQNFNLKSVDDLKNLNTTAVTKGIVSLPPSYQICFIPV
Method: as §2, §3

[8] = target: CYP2C9 (Homo sapiens (Human), UniProt P11712); assay: biochemical; type: in vitro ADME
CYP2C9, sequence (P11712 whole entry): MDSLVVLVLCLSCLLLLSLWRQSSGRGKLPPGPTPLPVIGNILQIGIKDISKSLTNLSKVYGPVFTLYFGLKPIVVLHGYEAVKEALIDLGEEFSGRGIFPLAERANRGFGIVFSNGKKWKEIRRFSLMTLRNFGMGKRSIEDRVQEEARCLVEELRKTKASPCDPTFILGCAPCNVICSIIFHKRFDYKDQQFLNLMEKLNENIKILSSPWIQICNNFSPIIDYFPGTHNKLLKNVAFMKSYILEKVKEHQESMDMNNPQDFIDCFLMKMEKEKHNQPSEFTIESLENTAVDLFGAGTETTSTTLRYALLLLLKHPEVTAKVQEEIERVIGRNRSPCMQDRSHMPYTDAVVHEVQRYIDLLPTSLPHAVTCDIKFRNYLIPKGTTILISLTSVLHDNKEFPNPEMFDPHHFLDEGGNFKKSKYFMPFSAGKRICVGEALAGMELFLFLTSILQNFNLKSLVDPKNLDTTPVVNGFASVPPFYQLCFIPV
Method: as §2, §3

[9] = target: CYP2D6 (Homo sapiens (Human), UniProt P10635); assay: biochemical; type: in vitro ADME
CYP2D6, sequence (P10635 whole entry): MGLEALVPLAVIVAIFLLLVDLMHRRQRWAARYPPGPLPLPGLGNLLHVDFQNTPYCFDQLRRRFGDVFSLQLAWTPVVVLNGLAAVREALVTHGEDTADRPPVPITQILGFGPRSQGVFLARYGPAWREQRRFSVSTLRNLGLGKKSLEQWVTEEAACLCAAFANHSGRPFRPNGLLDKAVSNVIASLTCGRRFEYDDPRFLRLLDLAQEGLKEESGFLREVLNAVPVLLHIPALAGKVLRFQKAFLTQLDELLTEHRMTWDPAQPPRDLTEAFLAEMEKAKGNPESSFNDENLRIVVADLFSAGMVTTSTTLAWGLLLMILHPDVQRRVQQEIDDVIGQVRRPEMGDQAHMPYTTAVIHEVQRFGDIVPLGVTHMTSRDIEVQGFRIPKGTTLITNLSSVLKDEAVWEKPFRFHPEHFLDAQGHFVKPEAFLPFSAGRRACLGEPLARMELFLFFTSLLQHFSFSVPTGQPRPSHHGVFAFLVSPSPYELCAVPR
Method: as §2, §3

[10] = target: CYP2E1 (Homo sapiens (Human), UniProt P05181); assay: biochemical; type: in vitro ADME
CYP2E1, sequence (P05181 whole entry): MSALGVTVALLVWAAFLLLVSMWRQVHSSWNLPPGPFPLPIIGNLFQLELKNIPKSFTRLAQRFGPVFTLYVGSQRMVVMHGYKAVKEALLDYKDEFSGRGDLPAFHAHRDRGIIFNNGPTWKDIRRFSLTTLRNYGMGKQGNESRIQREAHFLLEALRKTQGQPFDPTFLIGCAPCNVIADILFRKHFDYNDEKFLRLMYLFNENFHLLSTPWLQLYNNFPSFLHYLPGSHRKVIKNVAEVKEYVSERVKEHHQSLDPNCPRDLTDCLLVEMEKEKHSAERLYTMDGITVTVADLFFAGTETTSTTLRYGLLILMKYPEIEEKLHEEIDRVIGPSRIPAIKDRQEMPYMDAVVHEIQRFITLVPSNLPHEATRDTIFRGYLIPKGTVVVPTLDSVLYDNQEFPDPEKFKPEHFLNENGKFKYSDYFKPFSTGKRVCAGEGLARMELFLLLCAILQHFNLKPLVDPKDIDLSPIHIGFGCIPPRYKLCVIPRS
Method: as §2, §3

[11] = target: CYP3A4 (Homo sapiens (Human), UniProt P08684); assay: biochemical; type: in vitro ADME
CYP3A4, sequence (P08684 whole entry): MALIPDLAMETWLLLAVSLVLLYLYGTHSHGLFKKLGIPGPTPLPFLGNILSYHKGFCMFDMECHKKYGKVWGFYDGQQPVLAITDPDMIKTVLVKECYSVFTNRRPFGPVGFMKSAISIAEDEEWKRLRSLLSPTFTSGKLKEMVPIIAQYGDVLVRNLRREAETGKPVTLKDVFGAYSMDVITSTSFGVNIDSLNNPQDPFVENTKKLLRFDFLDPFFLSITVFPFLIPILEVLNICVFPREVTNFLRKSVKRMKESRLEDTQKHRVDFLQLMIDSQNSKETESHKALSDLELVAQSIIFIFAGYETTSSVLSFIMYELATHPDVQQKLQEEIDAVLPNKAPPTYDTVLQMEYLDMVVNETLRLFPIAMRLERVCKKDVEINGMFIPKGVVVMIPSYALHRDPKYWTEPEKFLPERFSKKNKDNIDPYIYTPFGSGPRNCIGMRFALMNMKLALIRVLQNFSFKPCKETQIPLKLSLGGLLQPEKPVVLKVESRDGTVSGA
Method: as §2, §3

[12] = target: recombinant human DHODH (Homo sapiens (Human), UniProt Q02127); assay: DHODH enzyme assay (Assay A), DCIP absorbance; type: biochemical; details: bins ≥10 nM-<100 nM and <10 nM; read-out: IC50 DHODH inhibition activity
recombinant human DHODH, sequence (Q02127 whole entry): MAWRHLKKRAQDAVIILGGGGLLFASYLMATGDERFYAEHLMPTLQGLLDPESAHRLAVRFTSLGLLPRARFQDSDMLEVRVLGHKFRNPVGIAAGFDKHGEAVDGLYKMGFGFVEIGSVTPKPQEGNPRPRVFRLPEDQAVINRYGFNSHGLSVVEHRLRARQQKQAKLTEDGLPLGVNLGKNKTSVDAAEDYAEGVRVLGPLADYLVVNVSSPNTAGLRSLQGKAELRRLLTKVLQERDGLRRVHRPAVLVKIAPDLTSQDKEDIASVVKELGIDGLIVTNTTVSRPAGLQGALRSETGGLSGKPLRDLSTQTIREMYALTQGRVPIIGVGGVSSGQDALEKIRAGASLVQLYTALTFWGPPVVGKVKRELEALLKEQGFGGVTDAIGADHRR

[13] = test system: MOLM-13 cells; assay: MOLM-13 cell viability (Assay B), Cell Titer-Glo; type: cell-based; details: Homo sapiens, read-out: IC50 MOLM13 inhibition activity
Outline: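 Cells at 1,000 per well in RPMI/10% FBS were exposed to compound (10E-5 to 6E-12 M), with or without 100 μM uridine, for 72 h. Viability was read by CellTiter-Glo luminescence. Duplicates were run, and potency was taken from two independent experiments.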

[14] = MOLM-13, 72 hours, bins ≥10 nM-<100 nM and <10 nM

SMILES | HLM % remaining [1] [%] | half-life at 1 μM ([1]; pooled liver microsomes) [h] | hHEPs % remaining [2] | half-life at 1 μM [2] [h] | IC50 [12] [nM] | IC50 [13, 14] [nM] | IC50 [3] [nM] | IC50 [4] [nM] | IC50 [5] [nM] | IC50 [6] [nM] | IC50 [7] [nM] | IC50 [8] [nM] | IC50 [9] [nM] | IC50 [10] [nM] | IC50 ([11]; IC50 CYP3A4-M, substrate Midozolam) [nM] | IC50 ([11]; IC50 CYP3A4-T, substrate Testosterone) [nM] | IC50 ([13]; MOLM-13, 72 h) [nM] | half-life at 1 μM ([1]; microsomes) [h]
COc1ccc(F)c(-n2ncc3c2CCC[C@H]3NC(=O)c2ncn3c2CCCC3)c1Cl [Compound C, reference compound] | 69 | 1.7 | 100% | > 10 | – | – | > 30000 | > 30000 | > 30000 | 18000 | > 30000 | 9200 | > 30000 | > 30000 | 16000 | > 30000 | – | –
Cc1cccc(F)c1-n1ncc2c1COC[C@H]2NC(=O)c1ncn2c1CCCC2 [Ex-58, (S)—N-(1-(2-fluoro-6-methylphenyl)-1,4,5,7-tetrahydropyrano[3,4-c]pyrazol-4-yl)-5,6,7,8-tetrahydroimidazo[1,5-a]pyridine-1-carboxamide] | 87 | 4.58 | 100% | > 10 | 10 to 100 | 10 to 100 | – | – | – | – | – | – | – | – | – | – | – | –
CC(C)OC(=O)c1cccc(-n2ncc3c2COC[C@H]3NC(=O)c2ncn3c2CCCC3)c1Cl [Ex-69, Isopropyl (S)-2-chloro-3-(4-(5,6,7,8-tetrahydroimidazo[1,5-a]pyridine-1-carboxamido)-4,7-dihydropyrano[3,4-c]pyrazol-1(5H)-yl)benzoate] | 0.14 | – | BLOD@ | 0.0767 | < 10 | – | – | – | – | – | – | – | – | – | – | – | < 10 | 0.122

Continued, in another order:

HLM % remaining [1] [%] | half-life at 1 μM ([1]; pooled liver microsomes) [h] | hHEPs % remaining [2] | half-life at 1 μM [2] [h] | IC50 [12] [nM] | IC50 [13, 14] [nM] | SMILES | IC50 [3] [nM] | IC50 [4] [nM] | IC50 [5] [nM] | IC50 [6] [nM] | IC50 [7] [nM] | IC50 [8] [nM] | IC50 [9] [nM] | IC50 [10] [nM] | IC50 ([11]; IC50 CYP3A4-M, substrate Midozolam) [nM] | IC50 ([11]; IC50 CYP3A4-T, substrate Testosterone) [nM] | IC50 ([13]; MOLM-13, 72 h) [nM] | half-life at 1 μM ([1]; microsomes) [h]
91 | > 6.08 | 100% | > 10 | 10 to 100 | 10 to 100 | O=C(N[C@@H]1COCc2c1cnn2-c1c(F)cccc1F)c1ncn2c1CCCC2 [Ex-59, (S)—N-(1-(2,6-difluorophenyl)-1,4,5,7-tetrahydropyrano[3,4-c]pyrazol-4-yl)-5,6,7,8-tetrahydroimidazo[1,5-a]pyridine-1-carboxamide] | – | – | – | – | – | – | – | – | – | – | – | –
94 | > 6.08 | 100% | > 10 | 10 to 100 | 10 to 100 | COc1cccc(C)c1-n1ncc2c1COC[C@H]2NC(=O)c1ncn2c1CCCC2 [Ex-61, (S)—N-(1-(2-methoxy-6-methylphenyl)-1,4,5,7-tetrahydropyrano[3,4-c]pyrazol-4-yl)-5,6,7,8-tetrahydroimidazo[1,5-a]pyridine-1-carboxamide] | – | – | – | – | – | – | – | – | – | – | – | –
